Experimental findings from patent EP4711377A1, “STEROID COMPOUND, PREPARATION METHOD THEREFOR, AND USE THEREOF” (Shujing Biopharma Co., Ltd, priority 2023, dated 2024) are described below.

Series [1] concerns mice with PTZ-induced convulsions. Kind of series: in vivo efficacy experiment in PTZ-induced epilepsy mouse model. Details: species or system C57 mice. The note with it: for Survival rate: 60 min before PTZ 120 mg/kg s.c., 30 min observation; for Number of clonic seizures / Number of tonic seizures / Clonic seizure latency period / Tonic seizure latency period: Mean ± SEM; for Clonic seizure latency period / Tonic seizure latency period: no seizure in 30 min recorded as 1800 s; for protective effects against acute epileptic seizures: conclusion in words. The protocol:
Male C57 mice, purchased from SPF (Suzhou) Biotechnology Co., Ltd.
PTZ: a 120 mg/kg PTZ solution (administration volume: 10 mL/kg) was prepared with normal saline as the solvent.
Test compounds: solutions of the test compounds at 3/1/0.3 mg/kg (administration volume: 10 mL/kg) were prepared with Vehicle in section 1.4 as the solvent.
One hour before the test, the experimental animals were transferred into an operation room for acclimation.
The mice were randomly grouped, marked, and weighed, with 10 mice in each group. At 60 min before PTZ administration, the test compounds and Vehicle were separately orally administered.
The PTZ solution was administered subcutaneously before experimental observation, and this time point was recorded as the observation starting point.
Immediately after PTZ administration, the animals were placed in observation boxes and observed for 30 min. The following observations of the animals were recorded:
Clonic seizure: the animal has a generalized myoclonus that lasts for more than 3 s and is accompanied by falling.
Tonic seizure: the limbs are straightened at a 90° angle to the torso.
All metrology data were expressed as mean ± standard error of mean (Mean ± SEM), and the Prism 8.0 statistical software was used for data testing and analysis.

A further series concerns the target GABAa receptor (α1β2γ2) (Homo sapiens, UniProt P14867+P47870). Kind of series: in vitro GABAa receptor (α1β2γ2) cellular activity assay, manual whole-cell patch clamp, enhancement of currents induced by 1 µM GABA. It counts as cell-based. The note with it: CHO cells; for activation at 0.1 µM: read-out: Agonist ratio. As for the experimental part: The cells used in this experiment were derived from a CHO cell line that stably expressed normal GABAa receptor functions after transfection with human GABAa receptor α1, β2, and γ2 subunit cDNAs. The cell line was constructed by B'sys GmbH. The cells were cultured in a medium (purchased from Invitrogen) containing the following components: DMEM culture medium; 10% (v/v) inactivated fetal bovine serum; 5 µg/mL Puromycin; 250 µg/mL Hygromycin B; and 100 µg/mL Zeocin. The cells were grown in culture dishes containing the above medium and cultured in an incubator at 37 °C with 5% CO2. 12 h to 24 h before the electrophysiological experiment, the cells were transferred onto circular glass slides placed in culture dishes, and were grown under the same medium and culture conditions as above. The density of cells on each circular glass slide was required to meet the requirement that the overwhelming majority of cells were independent and individual.
In this experiment, a manual patch-clamp system HEKA EPC10 USB signal amplifier and digital conversion system (purchased from HEKA Electronics, Germany) were used for whole-cell current recording. The circular glass slides with surface-grown CHO GABAa cells (see the cell culture and requirement section above) were taken out from the culture dishes and then placed into an electrophysiological recording chamber under an inverted microscope. The recording chamber was continuously perfused with extracellular fluid (approximately 1-2 mL/min). In the experiment, the whole-cell current recording technique was employed to record chloride ion currents of GABAa channels. 1 µM GABA was used to activate chloride ion currents of GABAa channels on each cell as an initial control (the reason for using 1 µM GABA concentration was that: this concentration was an effective activation concentration for the GABAa ion channel agonist GABA on the cells used in this experiment, falling between 10% and 20%). Unless otherwise specified, the experiment was performed at conventional room temperature (about 25 °C), and only cells meeting the electrophysiological recording criteria were adopted. In the experiment, the cells were ruptured and sealed, and were clamped at -80 mV after entering a whole-cell state. 1 µM GABA acted on the cells through the drug perfusion system to induce chloride ion currents of GABAa channels; the action time was about 4 s, and the current magnitude was used as the initial control value. Subsequently, the cells were perfused and incubated with the test concentration compound for 3 min, and then a mixed solution of 1 µM GABA and the corresponding test concentration compound was applied to act on the cells to induce currents, so as to observe the enhancing effect of the test compound on the currents induced by 1 µM GABA. When the cell state stabilized, the test compound would be applied from low to high concentrations to act on the same cell. In the experiment, to avoid current reduction caused by desensitization of GABAa ion channels, the interval time for the test substance acting on the cells through the drug perfusion system was at least 180 s.
The experimental data were analyzed using data analysis software provided by HEKA Patchmaster, Microsoft Excel, and Graphpad Prism.
In general terms: In patch-clamp work, channel activity is measured electrically.

Series [2] is described as follows: in vivo pharmacokinetic experiment in mice. Details: species or system ICR mice. The note with it: mouse, oral intragastric administration 10 mg/kg, single, plasma. As for the experimental part: Male ICR mice were subjected to oral intragastric administration. The plasma concentrations of the compounds of the present disclosure in the mice were measured, the PK parameters were calculated, and pharmacokinetic evaluation was performed on the compounds of the present disclosure.
Drug preparation: according to the weight of the weighed drug, the preparation volume was calculated; 5% of DMSO and 5% of HS-15 were added sequentially; after the drug was fully dissolved, 90% of a 20% aqueous β-cyclodextrin solution was added, and the mixture was well mixed for later use.
Route of administration: oral intragastric administration, at a dose of 10 mg/kg.
Administration frequency and duration: single administration.
ICR mice were stratified according to body weight and then randomly grouped, with 9 mice per group. The mice were fasted overnight prior to the experiment. The mice were subjected to oral intragastric administration. At 0 h, 0.167 h, 0.333 h, 0.5 h, 1 h, 2 h, 4 h, 6 h, 8 h, 12 h, and 24 h, 50 µL of blood was collected from the fundus vein of each mouse into a sample tube containing heparin sodium as an anticoagulant, and then the tube was placed in wet ice and centrifuged at 4000 r·min^-1 for 10 min. The plasma was separated, and cryopreserved in a refrigerator at -80 °C for testing.
The concentrations of the plasma samples were measured by high-performance liquid chromatography-tandem mass spectrometry (LC-MS/MS). The retention times of the compounds and internal standard, chromatographic acquisitions, and integrals of chromatograms were processed using the software Analyst (AB SCIEX), and statistical analysis of the data was performed using the software Microsoft office. The plasma concentrations were processed using a non-compartmental model of the pharmacokinetic software WinNonlin™ Version 6.3 (Pharsight, Mountain View, CA), and the pharmacokinetic parameters were calculated using a linear log-trapezoidal method. Table 4. Results of pharmacokinetic experiment in mice

[3] abbreviates: single concentration 0.1 µM, relative enhancement amplitude of GABAa receptor currents induced by 1 µM GABA.

Sequence of GABAa receptor (α1β2γ2) (P14867 28-456): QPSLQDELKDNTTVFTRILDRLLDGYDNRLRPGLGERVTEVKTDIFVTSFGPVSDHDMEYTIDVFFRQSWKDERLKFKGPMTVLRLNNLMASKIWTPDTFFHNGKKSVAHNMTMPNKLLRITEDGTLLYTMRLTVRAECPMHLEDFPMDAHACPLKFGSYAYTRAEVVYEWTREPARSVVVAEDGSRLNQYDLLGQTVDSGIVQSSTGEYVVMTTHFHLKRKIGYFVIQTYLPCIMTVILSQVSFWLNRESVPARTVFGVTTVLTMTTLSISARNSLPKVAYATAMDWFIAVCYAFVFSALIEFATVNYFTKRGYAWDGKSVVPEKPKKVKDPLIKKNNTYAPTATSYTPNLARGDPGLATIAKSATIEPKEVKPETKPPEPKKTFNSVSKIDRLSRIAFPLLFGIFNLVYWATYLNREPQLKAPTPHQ
Sequence of GABAa receptor (α1β2γ2) (P47870 25-512 limits assumed): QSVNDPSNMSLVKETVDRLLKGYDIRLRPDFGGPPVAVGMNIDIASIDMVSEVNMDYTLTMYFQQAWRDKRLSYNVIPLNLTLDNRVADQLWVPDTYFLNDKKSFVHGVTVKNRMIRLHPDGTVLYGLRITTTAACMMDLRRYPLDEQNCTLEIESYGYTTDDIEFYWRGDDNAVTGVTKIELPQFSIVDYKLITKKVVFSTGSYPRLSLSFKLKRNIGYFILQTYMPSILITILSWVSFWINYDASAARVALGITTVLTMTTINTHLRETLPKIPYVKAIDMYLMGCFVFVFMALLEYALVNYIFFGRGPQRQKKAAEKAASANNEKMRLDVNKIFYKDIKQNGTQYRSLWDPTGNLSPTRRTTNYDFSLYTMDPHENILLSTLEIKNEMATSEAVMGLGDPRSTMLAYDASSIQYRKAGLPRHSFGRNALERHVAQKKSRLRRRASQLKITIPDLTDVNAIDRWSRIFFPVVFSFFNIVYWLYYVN
Sequence of GABAa receptor (α1β2γ2) (P18507 40-475 partner): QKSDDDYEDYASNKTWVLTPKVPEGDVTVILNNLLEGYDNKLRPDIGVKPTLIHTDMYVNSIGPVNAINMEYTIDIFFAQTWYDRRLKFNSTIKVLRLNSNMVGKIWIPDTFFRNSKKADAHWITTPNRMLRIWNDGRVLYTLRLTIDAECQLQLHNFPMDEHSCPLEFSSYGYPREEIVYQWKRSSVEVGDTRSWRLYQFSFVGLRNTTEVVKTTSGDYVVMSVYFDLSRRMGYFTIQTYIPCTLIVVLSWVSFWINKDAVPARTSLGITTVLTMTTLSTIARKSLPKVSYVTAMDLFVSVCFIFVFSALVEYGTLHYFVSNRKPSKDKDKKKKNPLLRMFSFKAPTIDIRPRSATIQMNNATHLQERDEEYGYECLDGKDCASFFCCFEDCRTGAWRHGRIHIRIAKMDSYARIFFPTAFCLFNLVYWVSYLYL

The compound “1-((2S,3S,5R,8R,9R,108,13S,14S,15R,17S)-3-Hydroxy-2,3,13,15-tetramethylhexadecahydro-1H-cyclopenta[a]phenanthren-17-yl)-2-(1H-1,2,3-triazol-1-yl)ethan-1-one [Example 8]” showed a Survival rate in series [1] (dose 3 mg/kg p.o.) of 100%.

In the case of `C[C@@H]1C[C@H](C(=O)Cn2cc(C#N)cn2)[C@@]2(C)CC[C@H]3[C@@H](CC[C@@H]4C[C@](C)(O)[C@@H](C)C[C@@H]43)[C@H]12` [Example 2, 1-(2-((2S,3S,5R,8R,9R,10S,13S,14S,15R,17S)-3-Hydroxy-2,3,13,15-tetramethylhexadecahydro-1H-cyclopenta[a]phenanthren-17-yl)-2-oxoethyl)-1H-pyrazole-4-carbonitrile], at GABAa receptor (α1β2γ2) (positive modulator enhancing GABAa receptor currents induced by 1 µM GABA, read-out: EC50), the concentration giving a half-maximal response (EC50) (as a rule, the concentration needed to bring the measured effect to its halfway point) was found to be 22 nM. Also, in series [2], the AUC(0-t) – broadly, exposure summed from dosing to a finite time, without extrapolation to infinity – came out at 16600 ng·h/mL; the Cmax (usually the peak of the concentration-time curve) turned out to be 1240 ng/mL; the Tmax (commonly the time at which the peak concentration occurs) came to 4 h; the half-life (usually the time needed for the level to fall by half in the phase considered) is 7.38 h.

For `C[C@@H]1C[C@H](C(=O)Cn2ccc(C(F)(F)F)n2)[C@@]2(C)CC[C@H]3[C@@H](CC[C@@H]4C[C@](C)(O)[C@@H](C)C[C@@H]43)[C@H]12` [Example 4, 1-((2S,3S,5R,8R,9R,10S,13S,14S,15R,17S)-3-Hydroxy-2,3,13,15-tetramethylhexadecahydro-1H. cyclopenta[a]phenanthren-17-yl)-2-(3-(trifluoromethyl)-1H-pyrazol-1-yl)ethan-1-one], the Agonist ratio at GABAa receptor (α1β2γ2) (setting [3]) is listed as 626%.

Turning to `C[C@@H]1C[C@H](C(=O)Cn2nc(C#N)cc2C#N)[C@@]2(C)CC[C@H]3[C@@H](CC[C@@H]4C[C@](C)(O)[C@@H](C)C[C@@H]43)[C@H]12` [Example 5, 1-(2-((2S,3S,5R,8R,9R,10S,13S,14S,15R,17S)-3-Hydroxy-2,3,13,15-tetramethylhexadecahydro-1H-cyclopenta[a]phenanthren-17-yl)-2-oxoethyl)-1H-pyrazole-3,5-dicarbonitrile], the Survival rate in series [1] (dose 0.3 mg/kg p.o.) was determined as 10%. In series [1] (dose 1 mg/kg p.o.), the Survival rate was determined as 90%. For the same compound, in series [1] (dose 3 mg/kg p.o.), the Survival rate is listed as 100%, the “Number of clonic seizures” value is recorded as 0.6±0.2, the “Number of tonic seizures” value is listed as 0.0±0.0 and the “Clonic seizure latency period” value was 1133.7 ± 192.7 s. In series [1] (dose 3 mg/kg p.o.), the “Tonic seizure latency period” value came out at 1800.0 ± 0.0 s. Further, the “protective effects against acute epileptic seizures” value (shortened to “protective effects”) in series [1] (extremely low dose (0.3 mpk)) is recorded as “partial protective effects”. For the same compound, the “protective effects” value in series [1] (low dose (1 mpk)) is on record as “significant protective effects”.

On to `C[C@@H]1C[C@H](C(=O)Cn2cncn2)[C@@]2(C)CC[C@H]3[C@@H](CC[C@@H]4C[C@](C)(O)[C@@H](C)C[C@@H]43)[C@H]12` [Example 6, 1-((2S,3S,5R,8R,9R,10S,13S,14S,15R,17S)-3-Hydroxy-2,3,13,15-tetramethylhexadecahydro-1H-cyclopenta[a]phenanthren-17-yl)-2-(1H-1,2,4-triazol-1-yl)ethan-1-one], for which, in series [1] (dose 1 mg/kg p.o.), the Survival rate is 90%. In series [1] (dose 3 mg/kg p.o.), the Survival rate turned out to be 100%, the “Number of clonic seizures” value stood at 0.8±0.2, the “Number of tonic seizures” value is reported as 0.0±0.0 and the “Clonic seizure latency period” value came out at 1132.4 ± 195.9 s. For the same compound, the “Tonic seizure latency period” value in series [1] (dose 3 mg/kg p.o.) worked out at 1800.0 ± 0.0 s. Moreover, the “protective effects” value in series [1] (low dose (1 mpk)) is listed as “significant protective effects”. Further, at GABAa receptor (α1β2γ2) (setting [3]), the activation at 0.1 µM was found to be 380%.

As for `C[C@@H]1C[C@H](C(=O)Cn2nccn2)[C@@]2(C)CC[C@H]3[C@@H](CC[C@@H]4C[C@](C)(O)[C@@H](C)C[C@@H]43)[C@H]12` [Example 7, 1-((2S,3S,5R,8R,9R,10S,13S,14S,15R,17S)-3-Hydroxy-2,3,13,15-tetramethylhexadecahydro-1H-cyclopenta[a]phenanthren-17-yl)-2-(2H-1,2,3-triazol-2-yl)ethan-1-one], the Survival rate in series [1] (dose 3 mg/kg p.o.) was 100%. For the same compound, the activation at 0.1 µM on GABAa receptor (α1β2γ2) (setting [3]) came out at 794%.

Turning to `C[C@@H]1C[C@H](C(=O)Cn2cnnn2)[C@@]2(C)CC[C@H]3[C@@H](CC[C@@H]4C[C@](C)(O)[C@@H](C)C[C@@H]43)[C@H]12` [Example 10, 1-((2S,3S,5R,8R,9R,10S,13S,14S,15R,17S)-3-Hydroxy-2,3,13,15-tetramethylhexadecahydro-1H-cyclopenta[a]phenanthren-17-yl)-2-(1H-tetrazol-1-yl)ethan-1-one], the Survival rate in series [1] (dose 3 mg/kg p.o.) came out at 100%.

Consider `C[C@@H]1C[C@H](C(=O)Cn2ncnn2)[C@@]2(C)CC[C@H]3[C@@H](CC[C@@H]4C[C@H](O)[C@@H](C)C[C@@H]43)[C@H]12` [Example 17, 1-((2S,3S,5R,8R,9R,10S,13S,14S,15R,17S)-3-Hydroxy-2,13,15-trimethylhexadecahydro-1H-cyclopenta[a]phenanthren-17-yl)-2-(2H-tetrazol-2-yl)ethan-1-one], for which, on GABAa receptor (α1β2γ2) (setting [3]), the activation at 0.1 µM turned out to be 217%.

`C[C@H]1C[C@H]2[C@H](CC[C@@H]3[C@@H]2CC[C@]2(C)[C@@H](C(=O)Cn4cc(C#N)cn4)CC[C@@H]32)C[C@]1(C)O` [Example 19, 1-(2-((2S,3S,5R,8R,9R,10S,13S,14S,17S)-3-Hydroxy-2,3,13-trimethylhexadecahydro-1H-cyclopenta[a]phenanthren-17-yl)-2-oxoethyl)-1H-pyrazole-4-carbonitrile]: in series [2] (male, ICR), the AUC(0-t) stood at 26700 ng·h/mL, the Cmax worked out at 1650 ng/mL, the Tmax was 8 h and the half-life was above 8 h.
